What all share (assay type): cell-based
Conditions in all cases: 48 h

One data set concerns LNCaP cells. Briefly: MTT cytotoxicity assay, LNCaP (p53 pos). As for the experimental part:
(§1) The synthesized compounds were tested for their ability to block the proliferation of the selected model cell lines: LNCaP (p53+), PC3 (p53-), HCT^wt (p53+), and HCT^−/− (p53-) cells. The assay was carried out using the standard MTT (3-(4,5-dimethylthiazol-2-yl)2,5-diphenyl tetrazolium bromide) assay based on the modified approach reported by Ferrari and colleagues. […] Differences in IC50 values against these cell lines were used to assess the selectivity of the compounds.
(§2) Model cell lines were purchased from the in stock collection of the N.N. Blokhin Russian Cancer Research Center (RAMS). Cells were accurately maintained in the recommended media, supplemented with 10% heat-inactivated FBS (Invitrogen) and 2 mmol/L L-glutamine (Invitrogen).
(§3) First, 4000 cells per well were plated out in 140 µL of DMEM (with 10% FBS) in 96-well plates and incubated in 5% CO2 for 24 h at 37 °C without treatment. […] The cells were treated for 48 h with […] (eight dilutions) concentrations of the substances (each in triplicate) or doxorubicin (0.3 nM–600 nM, eight dilutions) as a control substance. After the incubation, 15 µL of MTT solution in PBS (5 mg/mL) was added, and the cells were incubated for 2 h, followed by removal of the media and addition of 120 µL of DMSO. […] Cell survival rates were determined by the comparison of optical density with the corresponding untreated control cell culture. Dose-dependent curves and the corresponding IC50 values were calculated using “GraphPad Prism 6” software (GraphPad Software, Inc., San Diego, CA, USA).
A general note: Tetrazolium assays rely on reduction of a dye to a coloured formazan, in cell work by metabolically active cells.

The next data set concerns PC3 cells. Briefly: MTT cytotoxicity assay, PC3 (p53 neg). As to the method:
as §1, §2, §3

The test system of another data set is HCT^wt cells. Briefly: MTT cytotoxicity assay, HCT^wt (p53 pos). As for the experimental part:
as §1, §2, §3

The next data set concerns HCT^−/− cells. Briefly: MTT cytotoxicity assay, HCT^−/− (p53 neg). As for the experimental part: as §1, §2, §3

Experimental findings from publication PMC9919490, “Synthesis and Biological Evaluation of Novel Dispiro-Indolinones with Anticancer Activity” (Molecules, 2023) are described below.

Usually IC50 stands for the midpoint of a concentration-inhibition curve. A high value points to weaker potency in that assay.

Take `CC(c1ccccc1)N1C(=O)C2(NC1=S)C(c1ccccc1Cl)CN(C)C21C(=O)Nc2ccc(Br)cc21` (mixture of isomers) [Compound 62]: the IC50 in the data set with LNCaP cells, with PC3 cells, in the data set with HCT^wt cells and with HCT^−/− cells was over 100 µM throughout.
As for `CC(c1ccccc1)N1C(=O)C2(NC1=S)C(c1cccc(Cl)c1)CN(C)C21C(=O)Nc2ccc(Br)cc21` (mixture of isomers) [Compound 63], the IC50 in the data set on LNCaP cells was 3.4 ± 1.5 µM; in the data set on PC3 cells, 8.8 ± 3.1 µM; with HCT^wt cells, 8 ± 2.5 µM; with HCT^−/− cells it was over 100 µM.
For `CC(c1ccccc1)N1C(=O)C2(NC1=S)C(c1ccccc1Cl)CN(C)C21C(=O)Nc2ccc(Cl)cc21` (mixture of isomers) [Compound 64], in that order: over 100 µM, over 100 µM, 24 ± 6.7 µM and over 100 µM.
For `CC(c1ccccc1)N1C(=O)C2(NC1=S)C(c1ccc(Cl)cc1)CN(C)C21C(=O)Nc2ccc(Br)cc21` (mixture of isomers) [Compound 65], the IC50 in the data set with LNCaP cells, with PC3 cells, with HCT^wt cells and in the data set on HCT^−/− cells was over 100 µM in each case.
Consider `CC(c1ccccc1)N1C(=O)C2(NC1=S)C(c1ccc(Cl)cc1)CN(C)C21C(=O)Nc2ccc(Cl)cc21` (mixture of isomers) [Compound 66], for which the IC50 with LNCaP cells, in the data set on PC3 cells, with HCT^wt cells and in the data set on HCT^−/− cells was over 100 µM in each case.
With `CN1C[C@H](c2ccccc2)[C@]2(NC(=S)N(c3ccccc3)C2=O)[C@]12C(=O)Nc1ccc(Br)cc12` (racemic) [Compound 5], the IC50 with LNCaP cells came to 2.2 ± 0.8 µM; with PC3 cells, 4.6 ± 2.5 µM; with HCT^wt cells, 10.5 ± 2.3 µM; in the data set with HCT^−/− cells it was 12.5 ± 3.2 µM.
For `CN1C[C@H](c2ccccc2Br)[C@]2(NC(=S)N(c3ccccc3)C2=O)[C@]12C(=O)Nc1ccccc12` (racemic) [Compound 8], the IC50 in the data set on LNCaP cells, with PC3 cells, in the data set on HCT^wt cells and with HCT^−/− cells was over 100 µM throughout.
Regarding `CN1C[C@H](c2ccccc2Cl)[C@]2(NC(=S)N(c3ccccc3)C2=O)[C@]12C(=O)Nc1ccccc12` (racemic) [Compound 9], the IC50 with LNCaP cells is over 100 µM; with PC3 cells it was over 100 µM; with HCT^wt cells, 21.7 ± 5.8 µM; in the data set on HCT^−/− cells, 23.1 ± 6.6 µM.
With `CN1C[C@H](c2ccccc2Cl)[C@]2(NC(=S)N(c3ccccc3)C2=O)[C@]12C(=O)Nc1ccc(Br)cc12` (racemic) [Compound 10], the IC50 in the data set on LNCaP cells and in the data set on PC3 cells was over 100 µM in each case.
Consider `CN1C[C@H](c2ccccc2Cl)[C@]2(NC(=S)N(c3ccccc3)C2=O)[C@]12C(=O)Nc1ccc(Cl)cc12` (racemic) [Compound 11], for which the IC50 with LNCaP cells, in the data set on PC3 cells, in the data set on HCT^wt cells and with HCT^−/− cells was over 100 µM throughout.
On to `CN1C[C@H](c2ccc(Cl)cc2)[C@]2(NC(=S)N(c3ccccc3)C2=O)[C@]12C(=O)Nc1ccc(Cl)cc12` (racemic) [Compound 12], for which the IC50 in the data set on LNCaP cells, in the data set with PC3 cells, with HCT^wt cells and in the data set with HCT^−/− cells was over 100 µM throughout.
Regarding `CN1C[C@H](c2cccc(Cl)c2)[C@]2(NC(=S)N(c3ccccc3)C2=O)[C@]12C(=O)Nc1ccccc12` (racemic) [Compound 14], the IC50 in the data set on LNCaP cells and in the data set on PC3 cells was over 100 µM throughout.
Turning to `CN1C[C@H](c2cccc(Cl)c2)[C@]2(NC(=S)N(c3ccccc3)C2=O)[C@]12C(=O)Nc1ccc(Br)cc12` (racemic) [Compound 15], the IC50 with LNCaP cells, in the data set with PC3 cells, with HCT^wt cells and in the data set on HCT^−/− cells was over 100 µM throughout.
Turning to `CN1C[C@H](c2ccc(Cl)c(Cl)c2)[C@]2(NC(=S)N(c3ccccc3)C2=O)[C@]12C(=O)Nc1ccc(Br)cc12` (racemic) [Compound 16], the IC50 in the data set on LNCaP cells is over 100 µM; in the data set with PC3 cells, over 100 µM; with HCT^wt cells, 7.6 ± 1.6 µM; in the data set with HCT^−/− cells, 8.8 ± 3.5 µM.
With `CN1C[C@H](c2ccccn2)[C@]2(NC(=S)N(c3ccccc3)C2=O)[C@]12C(=O)Nc1ccc(Br)cc12` (racemic) [Compound 17], the IC50 with LNCaP cells was over 100 µM; with PC3 cells, over 100 µM; with HCT^wt cells it was 5.6 ± 2.3 µM; with HCT^−/− cells, 7.6 ± 3.2 µM.
For `CN1C[C@H](c2ccccn2)[C@]2(NC(=S)N(c3ccccc3)C2=O)[C@]12C(=O)Nc1ccc(Cl)cc12` (racemic) [Compound 18], the IC50 in the data set on LNCaP cells is 2.1 ± 0.3 µM; in the data set on PC3 cells, 8.2 ± 3.5 µM; in the data set with HCT^wt cells, 60.1 ± 8.6 µM; with HCT^−/− cells it was over 100 µM.
Take `CN1C[C@H](c2ccncc2)[C@]2(NC(=S)N(c3ccccc3)C2=O)[C@]12C(=O)Nc1ccccc12` (racemic) [Compound 19]: the IC50 in the data set on LNCaP cells, in the data set with PC3 cells, with HCT^wt cells and with HCT^−/− cells was over 100 µM throughout.
Consider `CN1C[C@H](c2ccncc2)[C@]2(NC(=S)N(c3ccccc3)C2=O)[C@]12C(=O)Nc1ccc(Br)cc12` (racemic) [Compound 20], for which the IC50 with LNCaP cells, with PC3 cells, in the data set on HCT^wt cells and in the data set on HCT^−/− cells was over 100 µM each time.
With `CN1C[C@H](c2ccncc2)[C@]2(NC(=S)N(c3ccccc3)C2=O)[C@]12C(=O)Nc1ccc(Cl)cc12` (racemic) [Compound 21], the IC50 in the data set with LNCaP cells was over 100 µM; in the data set on PC3 cells, over 100 µM; in the data set with HCT^wt cells, 50.5 ± 10.2 µM; with HCT^−/− cells, over 100 µM.
For the compound `CN1C[C@H](c2cccc(Cl)c2)[C@]2(NC(=S)N(c3ccccc3)C2=O)[C@]12C(=O)Nc1ccc(Cl)cc12` (racemic) [Compound 23], the half-maximal inhibitory concentration (IC50) was over 100 µM in the data set on LNCaP cells, over 100 µM in the data set with PC3 cells, 50.7 ± 8.9 µM in the data set on HCT^wt cells and 50.7 ± 12.6 µM in the data set with HCT^−/− cells.
As for `CN1C[C@H](c2cccc(C=O)c2)[C@]2(NC(=S)N(c3ccccc3)C2=O)[C@]12C(=O)Nc1ccc(Cl)cc12` (racemic) [Compound 24], the IC50 in the data set on LNCaP cells, with PC3 cells, with HCT^wt cells and in the data set on HCT^−/− cells was over 100 µM in each case.
For `CN1C[C@H](C2CCCCC2)[C@]2(NC(=S)N(c3ccccc3)C2=O)[C@]12C(=O)Nc1ccccc12` (racemic) [Compound 25], the IC50 in the data set on LNCaP cells and in the data set with PC3 cells was over 100 µM in each case.
For `CN1C[C@H](C2CCCCC2)[C@]2(NC(=S)N(c3ccccc3)C2=O)[C@]12C(=O)Nc1ccc(Br)cc12` (racemic) [Compound 26], the IC50 in the data set on LNCaP cells and in the data set on PC3 cells was over 100 µM throughout.
For the compound `CCOc1ccc(N2C(=O)[C@]3(NC2=S)[C@@H](c2ccc(Cl)c(Cl)c2)CN(C)[C@@]32C(=O)Nc3ccccc32)cc1` (racemic) [Compound 27], the IC50 in the data set with LNCaP cells, in the data set with PC3 cells, in the data set on HCT^wt cells and in the data set with HCT^−/− cells was over 100 µM each time.
`CCOc1ccc(N2C(=O)[C@]3(NC2=S)[C@@H](c2ccc(Cl)cc2)CN(C)[C@@]32C(=O)Nc3ccccc32)cc1` (racemic) [Compound 28]: the IC50 in the data set on LNCaP cells, with PC3 cells, in the data set on HCT^wt cells and in the data set with HCT^−/− cells was over 100 µM each time.
As to `COc1ccc([C@H]2CN(C)[C@@]3(C(=O)Nc4ccc(Br)cc43)[C@@]23NC(=S)N(c2ccc(F)c(Cl)c2)C3=O)cc1OC` (racemic) [Compound 45], the IC50 in the data set with LNCaP cells and with PC3 cells was over 100 µM throughout.
As to `COc1ccc(N2C(=O)[C@]3(NC2=S)[C@@H](c2cccc(Cl)c2)CN(C)[C@@]32C(=O)Nc3ccccc32)cc1Cl` (racemic) [Compound 58], the IC50 in the data set with LNCaP cells and with PC3 cells was over 100 µM throughout.
In the case of `COc1ccc(N2C(=O)[C@]3(NC2=S)[C@@H](c2cccc(Cl)c2)CN(C)[C@@]32C(=O)Nc3ccc(Br)cc32)cc1Cl` (racemic) [Compound 59], the IC50 in the data set with LNCaP cells and in the data set on PC3 cells was over 50 µM each time.
With `CCOc1ccc([C@H]2CN(C)[C@@]3(C(=O)Nc4ccccc43)[C@@]23NC(=S)N(c2ccc(F)cc2)C3=O)cc1` (racemic) [Compound 60], the IC50 in the data set on LNCaP cells and with PC3 cells was over 100 µM each time.
As to `CCOc1ccc([C@H]2CN(C)[C@@]3(C(=O)Nc4ccc(Br)cc43)[C@@]23NC(=S)N(c2ccc(F)cc2)C3=O)cc1` (racemic) [Compound 61], the IC50 in the data set with LNCaP cells and with PC3 cells was over 100 µM in each case.
As for `C=CCN1C(=O)[C@]2(NC1=S)[C@@H](c1ccccn1)CN(C)[C@@]21C(=O)Nc2ccccc21` (racemic) [Compound 67], the IC50 with LNCaP cells and with PC3 cells was over 50 µM throughout.
Turning to `C=CCN1C(=O)[C@]2(NC1=S)[C@@H](c1cccc(Cl)c1)CN(C)[C@@]21C(=O)Nc2ccccc21` (racemic) [Compound 68], the IC50 in the data set on LNCaP cells and in the data set with PC3 cells was over 50 µM throughout.
